{"source": "patent US11365201B2", "about": "“Chlorotonil derivatives” (HELMHOLTZ-ZENTRUM FÜR INFEKTIONSFORSCHUNG GMBH, priority 2017, dated 2022)", "key": {"[1]": {"tested_on": "P. falciparum Dd2 (resistant strain)", "experiment": "Antiplasmodial in vitro drug sensitivity assay (HRP2-ELISA)", "assay_type": "cell-based", "conditions": "Plasmodium falciparum", "method": "(§1) Two laboratory strains of P. falciparum, the chloroquine sensitive 3D7 and the multi-resistant Dd2 were kept in continuous culture as previously described (Trager and Jensen 1976). In brief, parasites were kept in complete culture medium (RPMI 1640, 25 mM HEPES, 2 mM L-glutamine, 50 μg/ml gentamicin and 0.5% w/v AlbuMAX) at 37° C., 5% CO2 and 5% oxygen at 5% hematocrit with daily change of medium. Synchronization was performed with sorbitol twice a week (Lambros and Vanderberg 1979).\n(§2) In Vitro Drug Sensitivity Assay\n(§3) All compounds were dissolved in DMSO at stock dilutions between 25 and 100 mM; the reference drug chloroquine diphosphate (MW: 515.86) was diluted in distilled water and DMSO, respectively. […] Antiplasmodial activity of the different compounds was tested in a drug sensitivity assay against the two laboratory strains using the histidine-rich protein 2 (HRP2) assay as described previously (Noedl 2005). In brief: 96 well plates were pre-coated with the different compounds in a threefold dilution before ring stage parasites were added in complete culture medium at a hematocrit of 1.5% and a parasitemia of 0.05% in a total volume of 225 μl per well. After three days of incubation plates were frozen until analyzed by HRP2-ELISA. All compounds were evaluated in duplicate in at least two independent experiments."}, "[2]": {"tested_on": "P. falciparum 3D7 (sensitive strain)", "experiment": "Antiplasmodial in vitro drug sensitivity assay (HRP2-ELISA)", "assay_type": "cell-based", "conditions": "Plasmodium falciparum", "method": "as §1, §2, §3"}, "[3]": {"tested_on": "C. glutamicum DSM-20300", "experiment": "Antimicrobial assay, MIC by microbroth dilution", "assay_type": "cell-based", "conditions": "Corynebacterium glutamicum, DSM20300; 16 h, cation-adjusted Muller-Hinton broth", "method": "(§4) Bacterial strains used in susceptibility assays (minimum inhibitory concentrations, MIC) were either part of our internal strain collection or were purchased form the German Collection of Microorganisms and Cell Cultures (DSMZ). All compounds were prepared as DMSO stocks and MIC values were determined in standard microbroth dilution assays. Overnight cultures of bacteria were diluted in cation-adjusted Muller-Hinton broth (BBL™, BD) and were adjusted to approximately 10^5 cfu/mL. […] Bacteria were grown in the presence of the derivatives in serial dilution for 16 h at their optimal growth temperature. MIC values were determined according to CLSI guidelines (antibiotic concentration at which no visible bacterial growth is observed)."}, "[4]": {"tested_on": "S. aureus Newman", "experiment": "Antimicrobial assay, MIC by microbroth dilution", "assay_type": "cell-based", "conditions": "Staphylococcus aureus, NEWMAN; 16 h, cation-adjusted Muller-Hinton broth", "method": "as §4"}, "[5]": {"tested_on": "B. subtilis DSM-10", "experiment": "Antimicrobial assay, MIC by microbroth dilution", "assay_type": "cell-based", "conditions": "Bacillus subtilis, DSM10; 16 h, cation-adjusted Muller-Hinton broth", "method": "as §4"}, "[6]": {"tested_on": "E. coli TolC (+PMBN)", "experiment": "Antimicrobial assay, MIC by microbroth dilution with PMBN", "assay_type": "cell-based", "conditions": "16 h, 3 μg/mL polymyxin B nonapeptide (PMBN) added", "method": "Bacterial strains used in susceptibility assays (minimum inhibitory concentrations, MIC) were either part of our internal strain collection or were purchased form the German Collection of Microorganisms and Cell Cultures (DSMZ). All compounds were prepared as DMSO stocks and MIC values were determined in standard microbroth dilution assays. Overnight cultures of bacteria were diluted in cation-adjusted Muller-Hinton broth (BBL™, BD) and were adjusted to approximately 10^5 cfu/mL. For the E. coli culture, 3 μg/mL of polymyxin B nonapeptide (PMBN) was added to increase permeability of the outer membrane as chlorotonils were previously shown to not penetrate into Gram-negative cells. Bacteria were grown in the presence of the derivatives in serial dilution for 16 h at their optimal growth temperature. MIC values were determined according to CLSI guidelines (antibiotic concentration at which no visible bacterial growth is observed)."}, "[7]": {"tested_on": "L-929 (murine fibroblasts)", "experiment": "Cytotoxicity assay (MTT, 5 d)", "assay_type": "cell-based", "conditions": "Mus musculus, L929, 120 h", "method": "Cytotoxicity Assay The murine fibroblast cell line L-929 was obtained from the German Collection of Microorganisms and Cell Cultures (DSMZ) and maintained under conditions recommended by the depositor. Cells were seeded at 6×10^3 cells per well of sterile 96-well plates in 180 μL complete medium and treated with the compounds in serial dilution after 2 h of equilibration. After 5 d, viability was assessed by the MTT method. After 1.5 h incubation with 0.5 mg/mL MTT reagent, cells were washed with PBS and 100 μL of 2-propanol/10 N HCl (250:1) was added. The absorbance at 570 nm was determined on a microplate reader and cell viability was expressed as percentage relative to the respective solvent control. Half-inhibitory concentrations (IC50) were determined by sigmoidal curve fitting."}, "[8]": {"tested_on": "Plasmodium falciparum", "conditions": "starting parasitemia levels of 0.01, 0.05, 0.5 and […]; cited from earlier work"}, "[9]": {"experiment": "Determination of water solubility, Method 2 (HPLC-MS standard curve, saturated solution in water)", "assay_type": "physicochemical", "conditions": "summary of Table 1, method not given", "method": "Determination of Water Solubility\nA standard curve with 10 calibration points of the compound of interest is plotted using HPLC-MS and serial dilution. The dilutions and stock solutions were prepared in THF as a solvent. Following the measurements, a saturated solution in water of the compound in study was also measured. Upon plotting the standard curve using the peak areas of the MS peaks, the water samples were plotted along the curve and the solubility was then calculated."}}, "note": "Where two headings read alike, the source gives them in different places."}
{"smiles": "CC(C)CCO[C@@H]1[C@@H](C)[C@H]2[C@@H]3C(=O)C(Cl)(Cl)C(=O)[C@H](C)C(=O)O[C@@H](C)/C=C/C=C\\[C@@H](C)[C@@H]3C=C[C@@H]2C[C@@]1(C)O", "note": "[ChA-Epo2-Oisoamyl]", "values": [{"measurement": "IC50", "setting": "[1]; P. falciparum Dd2 (resistant strain), μM, read-out: IC50 against P. falciparum Dd2", "value": "> 11", "unit": "µM"}, {"measurement": "IC50", "setting": "[2]; P. falciparum 3D7 (sensitive strain), μM, read-out: IC50 against P. falciparum 3D7", "value": "> 11", "unit": "µM"}, {"measurement": "MIC", "setting": "[3]", "value": 3.2, "unit": "µg/mL"}, {"measurement": "MIC", "setting": "[4]", "value": 1.6, "unit": "µg/mL"}, {"measurement": "MIC", "setting": "[5]", "value": 0.8, "unit": "µg/mL"}, {"measurement": "MIC E. coli TolC (+PMBN)", "setting": "[6]", "value": 0.8, "unit": "µg/mL"}, {"measurement": "IC50", "setting": "[7]", "value": 44.7, "unit": "µM"}]}
{"smiles": "CCN(CC)CCCC(C)Nc1ccnc2cc(Cl)ccc12", "note": "(stereo not drawn) [Chloroquine, reference compound]", "values": [{"measurement": "IC50", "setting": "[1]; DD2, read-out: IC50 against P. falciparum Dd2", "value": 0.291, "unit": "µM"}, {"measurement": "IC50", "setting": "[2]; 3D7, read-out: IC50 against P. falciparum 3D7", "value": 0.0074, "unit": "µM"}, {"measurement": "Inoculum effect: difference in IC50 between lowest and highest parasitemia", "setting": "[8]", "value": 5.6, "unit": "fold"}]}
{"smiles": "CC1=C[C@@H](C)[C@H]2[C@@H]3C(=O)C(Cl)(Cl)C(=O)[C@H](C)C(=O)O[C@@H](C)/C=C/C=C\\[C@@H](C)[C@@H]3C=C[C@@H]2C1", "note": "[Chlorotonil A (ChA), Chlorotonil A, reference compound]", "values": [{"measurement": "water solubility", "setting": "[9]", "value": "less than 2 μg/mL"}]}
{"smiles": "C[C@H]1[C@H](OC(=O)CCC(=O)O)O[C@@H]2O[C@@]3(C)CC[C@H]4[C@H](C)CC[C@@H]1[C@@]24OO3", "note": "[artesunate]", "values": [{"measurement": "Inoculum effect: difference in IC50 between lowest and highest parasitemia", "setting": "[8]", "value": 8.8, "unit": "fold"}]}
